{"source": "ChEMBL document CHEMBL1150912", "about": "“A new taxane diterpenoid from Taxus mairei” (J Nat Prod, 1998)", "key": {"[1]": {"experiment": "Cytotoxicity against human Hep3B cells after 3 days by methylene blue assay", "type": "functional, cell-based, Hep 3B2", "details": "72 h"}, "[2]": {"test_system": "HeLa", "experiment": "Cytotoxicity against human HeLa cells after 3 days by methylene blue assay", "type": "functional, cell-based", "details": "72 h"}}, "note": "Starred links: 1 amine or outer side, 2 acyl side, 3 side chain; linkers in the order of their positions; H or OH if unused. Positions of bridges follow the written chain, without caps; N, C: chain ends. Non-standard residues stand in square brackets, D forms with d. Residues, ends and D or L forms follow the SMILES beside them. Chains are numbered I, II in the order given. Actinocin(1to9) = Cc1c2oc3c(C)ccc(C(=O)[*:2])c3nc-2c(C(=O)[*:1])c(N)c1=O; NMeV = CN[C@H](C(=O)O)C(C)C; Sar = CNCC(=O)O", "data": [{"compound": "Cc1c2oc3c(C)ccc(C(=O)N[C@@H]4C(=O)N[C@H](C(C)C)C(=O)N5CCC[C@H]5C(=O)N(C)CC(=O)N(C)[C@@H](C(C)C)C(=O)O[C@@H]4C)c3nc-2c(C(=O)N[C@@H]2C(=O)N[C@H](C(C)C)C(=O)N3CCC[C@H]3C(=O)N(C)CC(=O)N(C)[C@@H](C(C)C)C(=O)O[C@@H]2C)c(N)c1=O", "note": "[DACTINOMYCIN] (I: T[dV]P[Sar][NMeV] / II: T[dV]P[Sar][NMeV]; ester I:1-I:C, II:1-II:C; linker I:N-II:N via Actinocin(1to9))", "values": [{"measurement": "IC50", "setting": "[1]", "value": 0.01, "unit": "µg/mL"}, {"measurement": "IC50", "setting": "[2]", "value": 0.01, "unit": "µg/mL"}]}, {"compound": "CO[C@@]12[C@H](COC(N)=O)C3=C(C(=O)C(C)=C(N)C3=O)N1C[C@@H]1N[C@@H]12", "note": "[MITOMYCIN]", "values": [{"measurement": "IC50", "setting": "[1]", "value": 0.01, "unit": "µg/mL"}, {"measurement": "IC50", "setting": "[2]", "value": 0.01, "unit": "µg/mL"}]}, {"compound": "CC(=O)O[C@H]1[C@@H]2[C@]3(OC(C)=O)CO[C@@H]3C[C@H](O)[C@@]2(C)[C@@H](OC(=O)c2ccccc2)[C@H](O)C2=C(C)[C@@H](O)C[C@]21C(C)(C)O", "note": "[TAXUMAIROL K]", "values": [{"measurement": "IC50", "setting": "[1]", "value": 40, "unit": "µg/mL"}, {"measurement": "IC50", "setting": "[2]", "value": 9.2, "unit": "µg/mL"}]}]}
